ChEMBL document CHEMBL3352085, “In vitro evaluation of potential bitterness-masking terpenoids from the Canada goldenrod (Solidago canadensis)” (J Nat Prod, 2014)

Biological target: T1, Taste receptor type 2 member 31 (Homo sapiens, UniProt P59538)
T1 sequence (P59538 whole entry): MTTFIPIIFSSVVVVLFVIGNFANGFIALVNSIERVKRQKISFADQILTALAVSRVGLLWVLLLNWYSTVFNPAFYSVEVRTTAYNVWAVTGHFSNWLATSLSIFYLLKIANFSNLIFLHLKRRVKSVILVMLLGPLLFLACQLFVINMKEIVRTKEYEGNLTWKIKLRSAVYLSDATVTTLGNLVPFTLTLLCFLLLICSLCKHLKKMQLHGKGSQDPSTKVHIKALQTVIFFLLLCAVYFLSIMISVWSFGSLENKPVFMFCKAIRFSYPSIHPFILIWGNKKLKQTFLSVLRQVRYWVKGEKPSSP
Assay: Antagonist activity at human TAS2R31 expressed in HEK-293T cells stably expressing Galpha16gust44 assessed as inhibition receptor response to saccharin by fluorescence assay
Type: cell-based

IC50 [µM] | Structure (SMILES)
8 | C=C1CC[C@H]2C(C)(C)[C@@H](OC(C)=O)CC[C@]2(C)[C@H]1CC/C(C)=C/C(=O)O
> 25 | CC(=O)O[C@H]1CC[C@]2(C)[C@@H](CC/C(C)=C/C(=O)O)C(C)=CC[C@H]2C1(C)C
